Results taken from US20180074053A1 (priority 2016, published 2018).
Like-named read-outs stand apart in the source and are kept apart here.

Tests used:
GPCR109a = GPCR109a (Homo sapiens, UniProt Q8TDS4); details: doses of 5 mM and below; FIG. 6A
Procedure: (§1) Cells were grown in DMEM medium containing 10% FBS, 1× non-essential amino acids (Gibco #111450-040), 20 mM HEPES and 250 μg/mL Geneticin® (Gibco #10131-035). Cells were harvested with 0.25% Trypsin/EDTA (Gibco #25200-056), pelleted at 1,200×g for 6 minutes and resuspended in DMEM media described above minus Geneticin®. The cells were seeded at 4×10^4 cells/well/100 μL of a clear bottom/black 96-well plate and grown overnight. The calcium mobilization assays was performed using Screen Quest Fluo-8 Medium Removal Calcium Assay Kit (AAT Bioquest #36308) according to the manufacturer's protocol. Briefly, cells were washed with 100 μL volume of Hank's balanced salt solution, 20 mM HEPES, pH 7.4 and loaded with a buffer containing HBSS, 20 mM HEPES, 1× Pluronic F127 and the Fluo-8 NW dye. The cells were incubated for 30 minutes at 37° C. followed by a 30 minute room temperature incubation. Drug stocks were prepared at 100× concentration and diluted 1:33 in HBSS, 20 mM HEPES, pH 7.4 in a 96-well plate (Corning #3641). Calcium mobilization was measured using the FlexStation 3 (Molecular Devices) at excitation wavelength of 490 nm and emission wavelength of 525 nm. Fluorescence was measured for 180 seconds at 5 second intervals with the addition of compound at a 1:3 dilution after 15 seconds. Peak fluorescence values were calculated using SoftMax Pro 5 (Molecular Devices). The fluorescence values obtained from control wells without cells are subtracted from wells containing treated cells to correct for background. The ratio of fluorescence values of treated cells to vehicle control wells was used to calculate fold activity of the compounds.
(§2) The specificity of the agonist activity was determined by testing in the cell lines that over-express GPCR40 and GPCR 109a.

GPCR40 = GPCR40 (Homo sapiens, UniProt O14842); details: doses of 5 mM and below; FIG. 7A
GPCR40, sequence (O14842 whole entry): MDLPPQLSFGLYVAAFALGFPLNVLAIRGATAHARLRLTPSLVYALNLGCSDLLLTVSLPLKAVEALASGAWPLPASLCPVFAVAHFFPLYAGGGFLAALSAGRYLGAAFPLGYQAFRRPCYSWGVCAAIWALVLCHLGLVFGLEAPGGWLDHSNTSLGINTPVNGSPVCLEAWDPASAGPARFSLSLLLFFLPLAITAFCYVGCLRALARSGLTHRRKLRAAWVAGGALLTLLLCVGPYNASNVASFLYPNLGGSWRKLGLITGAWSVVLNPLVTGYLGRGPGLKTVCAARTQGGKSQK
Procedure: as §1, §2

HEK293T cells = details: 0.0037-0.1 mM; FIG. 4
Procedure: Real-time Ca2+ flux assays. To further validate the GPCRProfiler results, we established a real-time Ca2+ flux assay using a FlexStation 3 Microplate Reader (Molecular Devices). […] The Fluo-4 Direct™ Calcium Assay Kits (Life Technologies), which allows direct addition to wells containing cells growing in culture media without the requirement of media removal or a wash step, is used to monitor Ca2+ flux in cells according to the manufacturer's protocol. Briefly, HEK293T cells are plated and cultured in 96-well microplates to near confluence. The microplates containing cells are removed from the incubator and an equal volume of 2× Fluo-4 Direct™ calcium reagent loading solution is added directly to wells containing cells in culture medium. The plates are incubated for 30 minutes at 37° C. and 30 minutes at room temperature. Then the plates (no need to remove the medium or Fluo-4 Direct™ calcium reagent) are placed on FlexStation 3 with settings appropriate for excitation at 494 nm and emission at 516 nm. FlexStation 3 can directly transfer reagents from 96-well source plates to a read plate one column at a time. […] Shaded shapes are negative controls.

MrgprD^−/− (KO) mice = details: 0.5 mg/g with 2 mg/g glucose oral; P<0.05 KO vs. WT
Procedure: (§3) The mice were fasted overnight and their fasting glucose levels were measured. […] Blood glucose levels were measured at 30, 60, 90 and 120 minutes after glucose loading.
as §3

MC4 = MC4 (Homo sapiens, UniProt P32245); test: cell-based
MC4, sequence (P32245 whole entry): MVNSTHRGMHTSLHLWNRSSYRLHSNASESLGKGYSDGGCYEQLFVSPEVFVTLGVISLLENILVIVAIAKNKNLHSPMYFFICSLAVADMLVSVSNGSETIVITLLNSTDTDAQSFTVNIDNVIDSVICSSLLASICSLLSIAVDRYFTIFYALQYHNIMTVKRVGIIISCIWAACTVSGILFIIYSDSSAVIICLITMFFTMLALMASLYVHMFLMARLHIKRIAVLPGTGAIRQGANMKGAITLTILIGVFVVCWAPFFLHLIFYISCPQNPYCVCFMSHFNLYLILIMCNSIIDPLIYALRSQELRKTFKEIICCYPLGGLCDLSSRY
Procedure: The platform uses ChemiScreen GPCR stable cell lines that are used for real-time calcium flux assays to rapidly, screen a spectrum of GPCRs. […] Percentage activation values were determined upon initial addition of compound(s). Percentage activation and inhibition values were determined for each GPCR relative to the reference compounds.
Assays were performed according to the manufacturer's instructions. […] The assay plate was read by the FLIPR TETRA® (Molecular Devices, Sunnyvale, Calif.). All assay plate data were subjected to appropriate baseline corrections and the maximum fluorescence values were processed to calculate percentage activation (relative to ECmax reference agonist and vehicle control values).

GPCR109a, sequence (Q8TDS4 whole entry): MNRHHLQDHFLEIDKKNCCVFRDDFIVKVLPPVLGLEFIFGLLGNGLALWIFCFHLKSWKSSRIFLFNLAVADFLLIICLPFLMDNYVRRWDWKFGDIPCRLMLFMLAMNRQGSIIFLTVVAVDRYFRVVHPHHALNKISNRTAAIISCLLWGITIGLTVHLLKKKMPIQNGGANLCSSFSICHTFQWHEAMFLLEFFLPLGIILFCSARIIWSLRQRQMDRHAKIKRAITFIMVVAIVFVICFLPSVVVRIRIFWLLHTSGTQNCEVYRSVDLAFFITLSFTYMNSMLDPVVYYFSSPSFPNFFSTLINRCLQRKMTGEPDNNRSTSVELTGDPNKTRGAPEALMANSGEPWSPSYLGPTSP

CC(C)C[C@@H](NC(=O)CNC(=O)CN)C(=O)O
agonist activity (Ca2+ flux) (GPCR109a): inactive
agonist activity (Ca2+ flux) (GPCR40): inactive
real-time Ca2+ flux (HEK293T cells): stimulate greater Ca^2+ flux
reduction of blood glucose levels in KO mice compared with WT mice (OGTT) (MrgprD^−/− (KO) mice): significantly impaired
activation at 1250 µM (MC4; read-out: percent activation compared to standards, DT-110 @ 1.25 mM, Avg.): -0.5%
activation at 1250 µM (MC4; read-out: percent activation compared to standards, DT-110 @ 1.25 mM, n1): 3%
activation at 1250 µM (MC4; read-out: percent activation compared to standards, DT-110 @ 1.25 mM, n2): -4%
activation at 12500 µM (MC4; read-out: percent activation compared to standards, DT-110 @ 12.5 mM, Avg.): 3.4%
activation at 12500 µM (MC4; read-out: percent activation compared to standards, DT-110 @ 12.5 mM, n1): -0.2%
activation at 12500 µM (MC4; read-out: percent activation compared to standards, DT-110 @ 12.5 mM, n2): 7%
